Measurements reported in patent US12584915B2, “Glyphosate biosensor” (priority 2019, dated 2026).
Like-named read-outs stand apart in the source and are kept apart here.

Key:
WT (SEQ ID NO: 5) EcPhnD = biological target: T1, WT (SEQ ID NO: 5) EcPhnD (Escherichia coli, UniProt P16682, N152C); experiment: biochemical; type: binding, E. coli
T1 construct: made in house; host or cells: E. coli BL21 DE3
Method: (§1) Fluorescent screening and data Analysis. All fluorescence measurements were collected on a SpectraM2 fluorescence spectrometer at 22° C. Acrylodan excitation was set-up at 359 nm and an emission sweep was collected between 400-600 nm. Coumarin conjugated PhnD was excited at 419 nm and an emission spectrum was collected between 430-520 nm. Titrations were performed by increasing concentration of ligand and monitoring the changes in fluorescence intensity at 465 nm for coumarin conjugates or the ratio of fluorescence at 570 nm/450 nm. Error bars represent the standard deviation from three individual titrations. The fluorescence intensity at each wavelength was measured three times for each ligand concentration and the average of the reading was calculated. The ratio of the two averages from each of the three titrations was used to calculate the standard deviation. Kd values were determined by fitting the titration data to the following single binding isotherm equation using Kaleidagraph, where F is the observed fluorescence at a certain ligand concentration [L], Fo is the fluorescence in the absence of ligand, and Fmax is the fluorescence at saturating ligand concentrations.

PND177NΔ (SEQ ID NO: 2) [1] = biological target: T2, PND177NΔ (SEQ ID NO: 2) (Escherichia coli, UniProt P16682, E203N/N152C); experiment: biochemical; type: binding, E. coli; conditions: for affinity of the sensor for the ligand, in words: PhnD-E177NΔ sensor
T2 construct: made in house; host or cells: E. coli BL21 DE3
Text: (§2) To determine the Kd values, the ratio of fluorescence between two wavelengths (570 nm/450 nm) was monitored as a function of increasing ligand concentrations (FIGS. 2 and 3). The titration data were fit to a single binding isotherm equation (eq. 1), where R is defined as the fluorescence ratio at a given ligand concentration [L], R0 is the fluorescence ratio in the absence of ligand and Rmax is the fluorescence ratio at saturating ligand concentrations.
as §1

EcPhnD = EcPhnD (Escherichia coli, UniProt P16682); conditions: cited from earlier work
EcPhnD, sequence (P16682 27-338): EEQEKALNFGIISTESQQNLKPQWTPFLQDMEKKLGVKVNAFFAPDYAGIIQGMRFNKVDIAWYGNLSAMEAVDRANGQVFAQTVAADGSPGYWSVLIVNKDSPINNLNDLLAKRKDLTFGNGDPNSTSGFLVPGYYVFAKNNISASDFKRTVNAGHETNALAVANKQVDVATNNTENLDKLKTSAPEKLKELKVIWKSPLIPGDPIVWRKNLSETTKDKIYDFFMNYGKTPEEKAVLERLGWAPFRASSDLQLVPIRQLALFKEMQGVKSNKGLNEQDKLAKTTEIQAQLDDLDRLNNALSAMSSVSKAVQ
PND177NΔ (SEQ ID NO: 2) [2] = experiment: biochemical; type: binding, E. coli; conditions: PhnD-E177NΔ sensor vs wild type
Text: as §2, §1

[3] = Fluorescence titration of acrylodan-labelled PhnD variants with glyphosate; type: binding
Text: The fluorescent reporter group attached to PhnD changes its emission properties in response to glyphosate binding which can be observed using fluorescent spectroscopy. This allows detection of a ligand (in this case glyphosate), where fluorescence emission can be used to determine the concentration of glyphosate in solution. Two main types of data were collected, Apo vs Saturated spectra showing fluorescence emission with and without glyphosate (not shown), and the other type was titrations done with increasing glyphosate concentrations to determine the Kd value for each mutant for glyphosate.
The purified, fluorescently-labeled mutants were tested for their ability to bind to glyphosate. Kd values were determined by monitoring the changes in fluorescence as a function of increasing ligand concentrations. Table 1 provides dissociation constants (Kd values) of different PhnD variants for glyphosate. All mutants contain a cysteine at position 126 for attachment of acrylodan. Values were obtained by monitoring fluorescence change as a function of ligand concentration using eq. 1.
as §2, with “Importantly, the change in fluorescence associated with ligand binding is ratiometric with a larger decrease in emission at lower wavelengths. To” for “To”
Fluorescent screening and data Analysis. All fluorescence measurements were collected on a SpectraM2 fluorescence spectrometer at 22° C. […] Titrations were performed by increasing concentration of ligand and monitoring the changes in fluorescence intensity at 465 nm for coumarin conjugates or the ratio of fluorescence at 570 nm/450 nm. […]

[4] = WT (SEQ ID NO: 5), read-out: WT Kd
[5] = PND177NΔ (SEQ ID NO: 2), acrylodan, ratio 570 nm/450 nm, read-out: PND177NΔ Kd

T1 sequence (P16682 27-338 N152C): as the sequence (P16682 27-338) above, with N126C counted along it

Row | Molecule | Kd (WT (SEQ ID NO: 5) EcPhnD; [4]) [µM] | Kd (PND177NΔ (SEQ ID NO: 2) [1]; [5]) [µM] | affinity of the sensor for the ligand, in words (PND177NΔ (SEQ ID NO: 2) [1]) | fold increase in affinity for glyphosate over the wild-type protein [3] | other results
1 | Phosphate | 260 | 26.1 | moderate affinities |  | 
2 | Arsenate | 230 | 10.7 | moderate affinities |  | 
3 | O=C(O)CNCP(=O)(O)O [Glyphosate] |  |  |  |  | Kd (WT (SEQ ID NO: 5) EcPhnD): 650 µM; Kd (PND177NΔ (SEQ ID NO: 2) [1]): 4.29 µM; Kd (EcPhnD; previous research, read-out: Kd of EcPhnD for glyphosate): ~650 µM
4 | NCCP(=O)(O)O [2-Aminoethyl Phosphate (2-AEP), 2-Aminoethyl Phosphonate] | 0.002 | 5.61 |  |  | reduction of affinity compared to the wild-type protein (PND177NΔ (SEQ ID NO: 2) [2]): more than 3 orders of magnitude; Kd (EcPhnD; natural ligand, background statement, read-out: Kd of PhnD for 2-AEP): ~0.005 µM
5 | E177NΔ (protein) EEQEKALNFGIISTESQQNLKPQWTPFLQDMEKKLGVKVNAFFAPDYAGIIQGMRFNKVDIAWYGNLSAMEAVDRANGQVFAQTVAADGSPGYWSVLIVNKDSPINNLNDLLAKRKDLTFGNGDPCSTSGFLVPGYYVFAKNNISASDFKRTVNAGHETNALAVANKQVDVATNNTNNLDKLKTSAPEKLKELKVIWKSPLIPGSPIVWRKNLSETTKDKIYDFFMNYGKTPEEKAVLERLGWAPFRASSDLQLVPIRQLALFKEMQGVKSNKGLNEQDKLAKTTEIQAQLDDLDRLNNALSA |  |  |  | over 150 fold | fluorescence change associated with glyphosate binding ([3]; saturating glyphosate (FIG. 6)): large decrease in fluorescence
6 | E177N (protein) EEQEKALNFGIISTESQQNLKPQWTPFLQDMEKKLGVKVNAFFAPDYAGIIQGMRFNKVDIAWYGNLSAMEAVDRANGQVFAQTVAADGSPGYWSVLIVNKDSPINNLNDLLAKRKDLTFGNGDPCSTSGFLVPGYYVFAKNNISASDFKRTVNAGHETNALAVANKQVDVATNNTNNLDKLKTSAPEKLKELKVIWKSPLIPGDPIVWRKNLSETTKDKIYDFFMNYGKTPEEKAVLERLGWAPFRASSDLQLVPIRQLALFKEMQGVKSNKGLNEQDKLAKTTEIQAQLDDLDRLNNALSAMSSVSKAVQ |  |  |  | 80 fold | 
